# PMC8838521, “Antimicrobial, Cytotoxic and Mutagenic Activity of Gemini QAS Derivatives of 1,4:3,6-Dianhydro-L-iditol” (Molecules, 2022)
# Counter-ions that a name gives are not always drawn.
# Key:
# [1] = test system: human keratinocytes (HaCaT cell line); test: Cytotoxicity, MTT assay; format: cell-based; settings: MTT, 24 h incubation
# Procedure: To assess the cytotoxicity of QAS (IC50), the MTT assay on 96-well polystyrene plates was performed for human keratinocytes (HaCaT, Elabscience Biotechnology Inc., Houston, Texas, USA). The assay utilizes colorimetric determination of the cell metabolic activity and the color intensity reflects the number of live cells that can be measured spectrophotometrically. The cell line was cultured in a Dulbecco’s modified Eagle Medium (Invitrogen) supplemented with 10% fetal bovine serum (Sigma Aldrich) (v/v), 100 units/mL of penicillin, 100 μg/mL of streptomycin, and 2 mM L-glutamine and was stored at 37 °C in a humidified 5% CO2 incubator. Briefly, a day after plating of 500 cells per well, a series of concentrations (0.5–200 μg/mL) of the test compounds was applied. DMSO was added to the control cells at a final concentration of 1.0% (v/v), which was related to the maximal concentration of the solvent compounds used in the experiment. After 24 h of incubation with the QAS at 37 °C (humidified 5% CO2 incubator), a medium containing 1 mg/mL of MTT (3-(4,5-dimethylthiazol-2-yl)-2,5-diphenyltetrazolium bromide) was added to the wells up to a final concentration of 0.5 mg/mL. Subsequently, the plates were incubated at 37 °C for 4 h. Then, the medium was removed by suction, and the formazan product was solubilized with DMSO. The background absorbance at 630 nm was subtracted from that at 570 nm for each well (Epoch, BioTek Instruments, Winooski, VT, USA). Six replicates were conducted for each concentration. All experiments were repeated at least twice and the resulting IC50 values were calculated with GraFit 7 software (v. 7.0, Erithacus, Berkley, CA, USA).
# [2] = test system: Candida albicans ATCC 10231; parameters: method as in PMID 16459482; settings: strain not stated; cited from earlier work
# [3] = test system: Staphylococcus aureus ATCC 25923; parameters: method as in PMID 23669380; settings: strain not stated; cited from earlier work
# [4] = test system: Escherichia coli K12; settings: strain not stated; cited from earlier work
Compound,melting point,HaCaT IC50 [1] [µg/mL],MIC against C. albicans [2] [µg/mL],MIC against S. aureus [3] [µg/mL],MIC against E. coli [4] [µg/mL]
"Cn1cc[n+](C2COC3C2OCC3[n+]2ccn(C)c2)c1 (as salt: methanesulfonate) [QAS 6, N,N’-(1,4:3,6-Dianhydro-2,5-dideoxy-L-iditol-2,5-diyl)-bis(N-methylimidazolium) Ditrifluoromethanesulfonate]",90.5 to 93.7 °C,–,–,–,–
"CCCCCC[N+](C)(C)C1COC2C1OCC2[N+](C)(C)CCCCCC (as salt: methanesulfonate) [QAS 8, N,N’-(1,4:3,6-Dianhydro-2,5-dideoxy-L-iditol-2,5-diyl)-bis(N,N-dimethyl-N-hexylammonium) Ditrifluoromethanesulfonate]",222.8 to 224 °C,–,–,–,–
"CCCCCCCCCC[N+](C)(C)C1COC2C1OCC2[N+](C)(C)CCCCCCCCCC (as salt: methanesulfonate) [QAS 10, N,N’-(1,4:3,6-Dianhydro-2,5-dideoxy-L-iditol-2,5-diyl)-bis(N,N-dimethyl-N-decylammonium) Ditrifluoromethanesulfonate]",191 °C (dec.),–,–,–,–
Benzalkonium chloride [BAC],–,1.1 ± 1.4,8,2,13
